{"source": "paper PMC9490236", "about": "“Accurate de novo design of membrane-traversing macrocycles” (Cell, 2022)", "note": "Where a SMILES comes first, the peptide text is derived from it. [ ]: non-standard residue; d: D form. NMeF = CN[C@@H](Cc1ccccc1)C(=O)O; NMeL = CN[C@@H](CC(C)C)C(=O)O; dNMeL = CN[C@H](CC(C)C)C(=O)O; dNMeA = CN[C@H](C)C(=O)O"}
{"details": "PAMPA"}
{"molecule": "CC[C@@H](C)[C@H]1NC(=O)[C@@H](C)NC(=O)[C@@H](CC(C)C)NC(=O)[C@@H](Cc2ccccc2)NC(=O)[C@@H]2CCCN2C(=O)[C@@H]2CCCN2C(=O)[C@@H](CC(C)C)N(C)C(=O)[C@@H](C)N(C)C(=O)[C@@H](CC(C)C)NC(=O)[C@H](CC(C)C)NC(=O)[C@@H](Cc2ccccc2)NC1=O", "note": "[Design D11.18, DALA DILE DPHE LEU DLEU *DALA *DLEU PRO PRO DPHE DLEU] (cyclo(L[dL][dNMeA][dNMeL]PP[dF][dL][dA][dI][dF]))", "PAMPA_Papp_Avg": "BQL", "PAMPA_R1": "BQL", "PAMPA_R3": "BQL"}
{"molecule": "CC[C@@H](C)[C@H]1NC(=O)[C@@H](CC(C)C)NC(=O)[C@@H](CC(C)C)NC(=O)[C@@H](C)NC(=O)[C@@H](CC(C)C)NC(=O)[C@H]2CCCN2C(=O)[C@@H]2CCCN2C(=O)[C@H]2CCCN2C(=O)[C@@H](C)NC(=O)[C@@H](CC(C)C)N(C)C(=O)[C@H]2CCCN2C1=O", "note": "[Design D11.19, DILE DPRO *DLEU DALA DPRO PRO DPRO DLEU DALA DLEU DLEU] (cyclo([dP][dL][dA][dL][dL][dI][dP][dNMeL][dA][dP]P))", "PAMPA_Papp_Avg": "BQL", "PAMPA_R1": "BQL", "PAMPA_R3": "BQL"}
{"molecule": "CC[C@@H](C)[C@H]1NC(=O)[C@@H](CC(C)C)N(C)C(=O)[C@@H](CC(C)C)N(C)C(=O)[C@H](CC(C)C)NC(=O)[C@@H](CC(C)C)N(C)C(=O)[C@H](Cc2ccccc2)NC(=O)[C@H](CC(C)C)NC(=O)[C@@H]2CCCN2C(=O)[C@H]2CCCN2C(=O)[C@@H]2CCCN2C(=O)[C@H](CC(C)C)NC1=O", "note": "[Design D11.22, PHE *DLEU LEU *DLEU *DLEU DILE LEU PRO DPRO PRO LEU] (cyclo(LF[dNMeL]L[dNMeL][dNMeL][dI]LP[dP]P))", "PAMPA_Papp_Avg": "BQL", "PAMPA_R1": "BQL", "PAMPA_R3": "BQL"}
{"molecule": "CC[C@H](C)[C@@H]1NC(=O)[C@H]2CCCN2C(=O)[C@@H](CC(C)C)N(C)C(=O)[C@H](CC(C)C)NC(=O)[C@@H](C)N(C)C(=O)[C@H]2CCCN2C(=O)[C@@H](CC(C)C)NC(=O)[C@@H](C(C)C)NC(=O)[C@H](CC(C)C)NC(=O)[C@@H](C)NC(=O)[C@@H](Cc2ccccc2)NC(=O)[C@H]2CCCN2C1=O", "note": "[Design D12.2, ILE DPRO DPHE DALA LEU DVAL DLEU DPRO *DALA LEU *DLEU DPRO] (cyclo(I[dP][dF][dA]L[dV][dL][dP][dNMeA]L[dNMeL][dP]))", "PAMPA_Papp_Avg": "BQL", "PAMPA_R1": "BQL", "PAMPA_R3": "BQL"}
{"molecule": "CC[C@@H](C)[C@H]1NC(=O)[C@H](C(C)C)NC(=O)[C@H]2CCCN2C(=O)[C@@H]2CCCN2C(=O)[C@H](Cc2ccccc2)NC(=O)[C@@H](CC(C)C)NC(=O)[C@H](Cc2ccccc2)NC(=O)[C@@H]2CCCN2C(=O)[C@@H](C)N(C)C(=O)[C@@H]2CCCN2C(=O)[C@H](CC(C)C)NC(=O)[C@H](CC(C)C)N(C)C1=O", "note": "[Design D12.4, PRO *DALA PRO PHE DLEU PHE PRO DPRO VAL DILE *LEU LEU] (cyclo(FP[dP]V[dI][NMeL]LP[dNMeA]PF[dL]))", "PAMPA_Papp_Avg": "BQL", "PAMPA_R1": "BQL", "PAMPA_R3": "BQL"}
{"molecule": "CC[C@@H](C)[C@H]1NC(=O)[C@@H](CC(C)C)N(C)C(=O)[C@H](CC(C)C)NC(=O)[C@@H](C(C)C)NC(=O)[C@@H]2CCCN2C(=O)[C@H]2CCCN2C(=O)[C@@H]([C@H](C)CC)NC(=O)[C@@H](C)N(C)C(=O)[C@@H]([C@H](C)CC)NC(=O)[C@H](Cc2ccccc2)N(C)C(=O)[C@H]2CCCN2C(=O)[C@@H](Cc2ccccc2)NC1=O", "note": "[Design D12.7, DPHE DPRO *PHE DILE *DALA DILE DPRO PRO DVAL LEU *DLEU DILE] (cyclo([dV]L[dNMeL][dI][dF][dP][NMeF][dI][dNMeA][dI][dP]P))", "PAMPA_Papp_Avg": "BQL", "PAMPA_R1": "BQL", "PAMPA_R3": "BQL"}
